Consider two compounds from article PMC10386076, “Discovery of RC-752, a Novel Sigma-1 Receptor Antagonist with Antinociceptive Activity: A Promising Tool for Fighting Neuropathic Pain” (Pharmaceuticals, 2023).

Where only a bound is given, the exact number is not on record here.

One may read the Ki as the equilibrium dissociation constant of an inhibitor or competing ligand from its target. High values mean weaker binding, low ones tighter binding.

One series relates to zebrafish embryos. Put plainly: In vivo toxicity in zebrafish embryos. Also noted: species or system zebrafish (Danio rerio). The conditions noted are these: 5 dpf; for embryo phenotype: 0.1 μM and 1 μM; for morphological score: score 5 normal to 0.5 absent; for embryo death at the highest dose: 100 μM. The method, then: The in vivo toxicity was evaluated using the predictive zebrafish animal model, which is suitable for screening drugs for potential toxicity in the nervous, cardiovascular, and digestive system. Zebrafish embryos were exposed to increasing concentrations (from 0.1 to 100 μM) of compounds (R/S)-1c and (R/S)-1d immediately after the eggs’ fertilization. The mortality rate and the kind of developmental deficiencies were evaluated at 5 days post-fertilization (dpf). […] A decrease in the embryo vitality rate and an increase in the entity of damages to the vital structures became more evident at higher concentrations (Figure 7A, Table S2). Compound (R/S)-1c induced embryo death (100% of embryos) at 10 μM, whereas (R/S)-1d caused the death of 5 embryos out of 10 at the same concentration. Moreover, among the living embryos, morphological abnormalities, mainly affecting the shape of the tail, heart, and skin pigmentation, were observed (Figure 7B–E, Table S2). […] Furthermore, the swim bladder was not well inflated, and oedema was evident.
The Tg(GFAP:GFP) zebrafish (Danio rerio) were a kind gift from the Department of Biology, University of Padova (Italy), and were maintained in a re-circulatory system at 28 °C in a light/dark cycle of 14/10 h. They were fed three times a day with dry food and Artemia. The zebrafish embryos and larvae were used for the experiments until 5 days post-fertilization (dpf); mating between 2 females and 1 male was set up the day before the test. The eggs were preserved from predation by adult fish using a plastic separator in the tanks. The eggs were collected right after spawning and used in the teratogenicity experiments. The zebrafish husbandry procedures were performed according to the Directive 2010/63/EU and in compliance with the local animal welfare regulations (authorization n. prot. 18,311/2016; released by the “Comune di Meldola”, 9 November 2016).
The toxicity evaluation was performed as previously reported. Briefly, the eggs were collected, rinsed out with embryo medium (for 1 L of distilled water: 0.1 g sodium bicarbonate, 0.1 g instant ocean, 0.19 g calcium sulphate) and put in different Petri dishes with the same medium; only the unscathed embryos were selected. Generally, 8 embryos per untreated control and treatment concentrations were cultured. The eggs were treated with an increasing concentration of (R/S)-1c and (R/S)-1d, starting from 1 h post-fertilization. They were incubated at 28 °C for about 5 days (without changing the media) in order to allow exposure to the compounds throughout all development stages. The teratogenic effects were evaluated after 5 days from treatment with morphological and viability observations. The experiment was performed in octuplicate, and the data were assessed using a sample score sheet, as reported by Brannen KC and colleagues.

Series [1] concerns MRC-5 (human normal lung fibroblasts). Put plainly: MTS cytotoxicity assay, MRC-5. In kind it is cell-based. The method, then:
(§1) The early toxicity assays included in vitro cytotoxicity against two human cell lines, namely MRC-5 (human normal lung fibroblasts) and CHME-5 (human microglial cells) and an in vivo zebrafish model. The cell lines MRC-5 and CHME-5 were exposed for 24, 48, and 72 h to increasing concentrations of the tested compounds (from 0.1 to 100 µM).
(§2) A CellTiter 96® AQueous One Solution Cell Proliferation Assay (Promega, Milan, Italy) was used on cells seeded onto a 96-well plate at a density of 9 × 10^3 cells per well. The effect of the test compound was evaluated at four different concentrations (0.1, 1, 10, and 100 μM) after 24 h of continued exposure. Two independent experiments were performed for each concentration. The optical density (OD) of the treated and untreated cells was determined at a wavelength of 490 nm using a plate reader. The data were elaborated with the GraphPad Prism 5 program.
(Formazan colour is commonly taken as a measure of viable cells.)

The target in the next series is T1, S1R (Cavia porcellus, UniProt Q60492).
T1 construct: tissue Harlan-Winkelmann, Borchen, Germany; host or cells: guinea pig brain membrane homogenate
Put plainly: S1R radioligand displacement binding assay ([3H]-(+)-pentazocine). The note with it: for Selectivity (Ki S2R/Ki S1R): ratio Ki S2R/Ki S1R. The arrangement: species or system guinea pig. The method, then: (R/S)-1a–3e were first evaluated for their binding affinity toward the S1R and S2R in a radioligand displacement assay. […] Nonspecific binding was determined using non-radiolabeled (+)-pentazocine and haloperidol in excess. All the binding experiments were carried out in duplicate. […] Haloperidol was used as a control compound in both assays.
Five guinea pig brains were homogenized with the potter (500–800 rpm, 10 up and down strokes) in 6 volumes of cold 0.32 M sucrose. The suspension was centrifuged at 1200× g for 10 min at 4 °C. […] This procedure was repeated twice. The final pellet was resuspended in 56 volumes of buffer and frozen ([…]) in 1.5 mL portions containing about 1.5 mg protein/mL.
The test compound solutions were prepared by dissolving approximately 10 µmol (usually 2–4 mg) of test compound in dimethyl sulfoxide (DMSO, unless otherwise specified), so that a 10 mM stock solution was obtained. To obtain the required test solutions for the assay, the DMSO stock solution was diluted with the respective assay buffer. The filtermats were presoaked in 0.5% aqueous polyethylenamine solution for 2 h at r.t. before use. All the binding experiments were carried out in duplicate in 96-well multiplates. The concentrations given are the final concentrations in the assay. […] The receptor preparation was always added last. During the incubation, the multiplates were shaken at a speed of 500–600 rpm at the specified temperature. […] During the filtration each well was washed five times with 300 µL of water. Subsequently, the filtermats were dried at 95 °C. The solid scintillator was melted on the dried filtermats at 95 °C for 5 min. After the solidifying of the scintillator at r.t., the trapped radioactivity in the filtermats was measured with the scintillation analyzer. Each position on the filtermat corresponding to one well of the multiplate was measured for 5 min with the [^3H]-counting protocol. The overall counting efficiency was 20%. The IC50 values were calculated with GraphPad Prism 3.0 (GraphPad Software, San Diego, CA, USA) by nonlinear regression analysis. The IC50 values were subsequently transformed into Ki values using the equation of Cheng and Prusoff. All the experiments were carried out in duplicates. Compounds with high S1R affinity were tested in three independent experiments, and their Ki values are given as mean value ± SEM from the three measurements. […] (22.0 Ci/mmol; Perkin-Elmer). […] The nonspecific binding was determined with 10 µM unlabeled (+)-pentazocine.

The test system of series [2] is CHME-5 (human microglial cells). Put plainly: MTS cytotoxicity assay, CHME-5. In kind it is cell-based. The conditions noted are these: for cell survival: CHME-5, 100 μM, all time points. The procedure: as §1, §2
Where [3] appears, read: MRC-5, concentrations ≤10 μM, 24, 48 and 72 h.
The mark [4] stands for this setting: CHME-5, concentrations ≤10 μM, 24, 48 and 72 h.

T1 sequence (Q60492 whole entry): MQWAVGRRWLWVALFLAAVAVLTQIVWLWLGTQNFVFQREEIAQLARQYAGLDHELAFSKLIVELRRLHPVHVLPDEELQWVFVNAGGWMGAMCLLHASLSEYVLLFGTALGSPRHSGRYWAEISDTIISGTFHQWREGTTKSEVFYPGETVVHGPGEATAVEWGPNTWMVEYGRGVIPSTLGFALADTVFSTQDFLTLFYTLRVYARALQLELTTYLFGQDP

In the case of `OCC(CCN1CCCCC1)c1ccc(-c2ccccc2)cc1` (stereo not shown) [Compound 1d, 2-([1,1’-biphenyl]-4-yl)-4-(piperidin-1-yl)butan-1-ol], the embryo phenotype result in the series on zebrafish embryos is “normal and vital phenotype”. For the same compound, the values for the morphological score in the series on zebrafish embryos (0.1 μM), in the series on zebrafish embryos (1 μM) and in the series on zebrafish embryos (10 μM) were 5, 4 and 1, respectively. Also, the death of embryos with zebrafish embryos (10 μM) is 5 embryos out of 10. Moreover, the “embryo death at the highest dose” value with zebrafish embryos was “death of all the zebrafish embryos”. The cytotoxicity entry in series [1] (MRC-5, 100 µM, 24 and 48 h of exposure) is listed as “no significative cytotoxicity”; in series [1] (setting [3]), “no cytotoxicity”; in series [2] (CHME-5, 100 µM, 24 and 48 h of exposure), “no significative cytotoxicity”; in series [2] (setting [4]) it was “no cytotoxicity”. The survival rate result is “higher than 50%” in series [1] (MRC-5, 100 µM, 72 h) and “higher than 50%” in series [2] (CHME-5, 100 µM, 72 h). Moreover, at S1R, the “Selectivity (Ki S2R/Ki S1R)” value was 58. The cell survival entry in series [2] is reported as “reduced the survival”.
Consider `CN(CCC(CO)c1ccc(-c2ccccc2)cc1)Cc1ccccc1` (stereo not shown) [Compound 1c, 3-([1,1’-biphenyl]-4-yl)-N-benzyl-4-hydroxy-N-methylbutanamine], for which, in the series on zebrafish embryos, the embryo phenotype entry is “normal and vital phenotype”. In the series with zebrafish embryos (0.1 μM), this compound displayed a morphological score of less than 4. Further, the embryo death in the series on zebrafish embryos (10 μM) was 100 % of embryos. The “embryo death at the highest dose” value in the series on zebrafish embryos is on record as “death of all the zebrafish embryos”. Moreover, the cytotoxicity entry in series [1] (MRC-5, 100 µM, 24 h of exposure) was “evident cytotoxic effects”; in series [1] (setting [3]), “no cytotoxicity”; in series [2] (CHME-5, 100 µM, 24 h of exposure), “evident cytotoxic effects”; in series [2] (setting [4]), “no cytotoxicity”. The compound also gave an inhibitory constant (Ki) on S1R of 950 ± 80 pM. On S1R, the “Selectivity (Ki S2R/Ki S1R)” value is given as 127. The cell survival result in series [2] is reported as “reduced the survival”.
